# Assays:
# HIV-1 protease [1] = molecular target: T1, HIV-1 protease (Human immunodeficiency virus type 1 group M subtype B, UniProt P04585); assay: Evaluation of HIV-1 protease inhibitory activity (residual substrate peptide by HPLC); format: biochemical; set-up: A recombinant HIV-1 protease (ab84117) from Abcam was used as an HIV-1 protease; purchased Abcam ab84117; settings: 25° C., 2 hours, pH 4.7
# Excerpt: FIG. 15 show the results of evaluation of inhibition of an HIV-1 protease. FIG. 15A includes HPLC chromatograms of HIV-1 protease reaction mixtures. Dashed and solid arrows indicate an HIV-1 protease substrate and its degradation product, respectively. (+) and (−)HIV-1 protease indicate reaction mixtures with and without the HIV-1 protease, respectively. (−)Betalain indicates a reaction mixture without betalain pigments. The horizontal axis indicates the retention time (min), and the vertical axis indicates the signal intensity (μV). […] Gray and black bars indicate reaction mixtures containing betanin and amaranthin, respectively. The white bar indicates the reaction mixture without betalain pigments as a negative control. Bars represent the mean±SE (n=3). Symbol “*” represents p<0.05 as compared to the reaction mixture without betalain pigments. 0, 10, 50, and 100 indicate 0-, 10-, 50-, and 100-fold amounts of betalain as compared to the HIV-1 protease. […]
# After the reaction, the reaction liquid was measured for the amount of the residual substrate peptide through use of HPLC, and a residual ratio with respect to the substrate before the reaction was calculated. […] Analysis was performed with an analytical wavelength being set to 260 nm allowing the HIV-1 protease substrate peptide to be detected.
# [2] = tested on: Human breast cancer cells (MCF-7); assay: Influence of betalain pigment on human breast cancer cells (AlamarBlue assay); format: cell-based; settings: MCF-7 cells, concentration of 50 μM, cultured for 72 hours, p<0.05 vs untreated cells
# Method: FIG. 14 show the results of evaluation of cell proliferation in MCF-7 cells. FIG. […] Cell proliferation was determined using an AlamarBlue assay according to the manufacturer's instructions. Bars represent the mean±SE (n=5). Symbol “*” represents p<0.05 as compared to untreated cells. […] Cells were examined under an inverted microscope. Bars represent 100 μm.
# Human breast cancer cells (MCF-7) were received from the RIKEN BioResource Center. For the culture of the cells, Dulbecco's modified Eagle's medium-high glucose (4.5 g L^−1 glucose; DMEM-HG) supplemented with 10% FBS and antibiotics (100 U mL^−1 penicillin and 100 μg mL^−1 streptomycin) was used. The cells were cultured under the culture conditions of 37° C., a humidity of 100%, and a 5% CO2/95% air atmosphere. For the culture, the breast cancer cells were added at 5,000 cells per well on 96-well plates, and at the same time, amaranthin or betanin was added at different concentrations, and the cells were cultured for 72 hours. After that, the activity of the breast cancer cells was evaluated by an AlamarBlue assay (alamarBlue Cell Viability Reagent, Thermo Fisher Scientific). The procedure followed the accompanying instructions.
# HIV-1 protease [3] = molecular target: T1, HIV-1 protease; settings: literature virtual screening, not tested experimentally there; cited from earlier work
smiles,measurement,setting,value
"O=C(O)C1=C/C(=C/C=[N+]2/c3cc(O)c(OC4OC(CO)[C@@H](O)C(O)C4O)cc3CC2C(=O)[O-])CC(C(=O)O)N1 (stereo in doubt) [betanin, reference compound]",inhibitory activity on the HIV-1 protease,"HIV-1 protease [1]; 10-, 50- and 100-fold amounts with respect to the HIV-1 protease",not found to have inhibitory activity
same,cancer cell activity of the breast cancer cells,[2],significantly suppressed
O=C(O)C1=C/C(=C/C=[N+]2c3cc(O)c(O[C@@H]4O[C@H](CO)[C@@H](O)[C@H](O)[C@H]4O[C@@H]4O[C@H](C(=O)O)[C@@H](O)[C@H](O)[C@H]4O)cc3C[C@H]2C(=O)[O-])C[C@@H](C(=O)O)N1 [amaranthin],virtual screening prediction as HIV-1 protease inhibitor,HIV-1 protease [3],candidate of a novel HIV-1 protease inhibitor
same,activity of the HIV-1 protease,HIV-1 protease [1]; 100-fold amount with respect to the HIV-1 protease (16 pmol),significantly inhibited
same,cancer cell activity of the breast cancer cells,[2],significantly suppressed

# From patent publication US12241102B2, “Method for synthesizing betalain pigment” (priority 2018, dated 2025)
